# Source: publication PMC9942197, “Mechanistic Insights into the Ene-Reductase-Catalyzed Promiscuous Reduction of Oximes to Amines” (ACS Catalysis, 2023)
# Tests used:
# XenA [1] = target: T1, XenA (Pseudomonas putida, UniProt Q9R9V9); assay: stopped-flow pre-steady-state kinetics, reductive half-reaction; format: biochemical; details: read-out: Kd NADPH; reductive half-reaction of oxidized enzyme
# T1 construct: recombinant purified FMN ene-reductase, His-tagged (position differs from earlier reports)
# Description: stopped-flow pre-steady-state kinetics, reductive half-reaction on XenA
# XenA [2] = target: T1, XenA; assay: X-ray crystal structure; format: binding; details: active site, oxidized flavin
# OPR3 [3] = target: T2, OPR3 (Solanum lycopersicum, UniProt Q9FEW9); assay: stopped-flow pre-steady-state kinetics, oxidative half-reaction; format: biochemical; details: oxidative half-reaction of reduced enzyme; read-out: Kd oxime
# T2 construct: recombinant purified FMN ene-reductase; construct details in supplement
# Description: (§1) stopped-flow pre-steady-state kinetics, oxidative half-reaction on OPR3
# OPR3 [4] = target: T3, OPR3 (Solanum lycopersicum, UniProt Q9FEW9, Y370F); assay: as above; format: biochemical; details: oxidative half-reaction of reduced enzyme; read-out: Kd oxime
# T3 construct: recombinant purified FMN ene-reductase; construct details in supplement
# Description: as §1
# OPR3 [5] = target: T4, OPR3 (Solanum lycopersicum, UniProt Q9FEW9, Y190F); assay: as above; format: biochemical; details: oxidative half-reaction of reduced enzyme; read-out: Kd oxime
# T4 construct: recombinant purified FMN ene-reductase; construct details in supplement
# Description: as §1
# XenA [6] = target: T1, XenA; assay: as above; format: biochemical; details: oxidative half-reaction of reduced enzyme; read-out: Kd oxime
# Description: stopped-flow pre-steady-state kinetics, oxidative half-reaction on XenA
# OPR3 [7] = target: T2, OPR3; assay: X-ray crystal structure; format: binding; details: active site, oxidized flavin
# T1 sequence (Q9R9V9 entry or part of it): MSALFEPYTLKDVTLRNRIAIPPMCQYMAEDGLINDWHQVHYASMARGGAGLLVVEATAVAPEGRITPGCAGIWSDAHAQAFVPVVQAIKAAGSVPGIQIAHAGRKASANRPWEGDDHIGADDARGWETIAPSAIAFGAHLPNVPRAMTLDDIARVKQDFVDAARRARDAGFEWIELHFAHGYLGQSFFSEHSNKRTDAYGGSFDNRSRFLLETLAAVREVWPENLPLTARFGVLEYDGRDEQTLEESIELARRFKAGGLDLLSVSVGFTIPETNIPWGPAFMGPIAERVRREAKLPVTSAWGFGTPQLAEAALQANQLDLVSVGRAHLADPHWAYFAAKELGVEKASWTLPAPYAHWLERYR
# T2 sequence (Q9FEW9 whole entry): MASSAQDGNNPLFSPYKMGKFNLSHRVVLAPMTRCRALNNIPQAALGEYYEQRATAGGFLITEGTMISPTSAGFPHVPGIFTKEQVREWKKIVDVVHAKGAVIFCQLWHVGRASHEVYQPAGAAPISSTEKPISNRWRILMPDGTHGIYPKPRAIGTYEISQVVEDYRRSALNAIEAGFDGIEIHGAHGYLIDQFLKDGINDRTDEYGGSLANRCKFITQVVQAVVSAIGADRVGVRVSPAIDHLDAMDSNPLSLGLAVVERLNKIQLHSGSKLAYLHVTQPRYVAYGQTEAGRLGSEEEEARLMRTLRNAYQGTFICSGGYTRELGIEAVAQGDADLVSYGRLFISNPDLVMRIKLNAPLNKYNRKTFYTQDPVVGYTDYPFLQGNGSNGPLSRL
# T4 sequence (Q9FEW9 whole entry Y190F): as the sequence (Q9FEW9 whole entry) above, with Y190F counted along it
# T3 sequence (Q9FEW9 whole entry Y370F): as the sequence (Q9FEW9 whole entry) above, with Y370F counted along it
smiles,measurement,setting,value
NC(=O)C1=CN([C@@H]2O[C@H](COP(=O)(O)OP(=O)(O)OC[C@H]3O[C@@H](n4cnc5c(N)ncnc54)[C@H](OP(=O)(O)O)[C@@H]3O)[C@@H](O)[C@H]2O)C=CC1 [NADPH],Kd,XenA [1],109 ± 5.1 µM
"CCOC(=O)C(=NO)C(C)=O [1a, oxime 1a]",X-ray crystal structure,XenA [2],(b) XenA/1a.
same,Kd,OPR3 [3],79 ± 4 µM
same,Kd,OPR3 [4],37.4 ± 4.4 µM
same,Kd,OPR3 [5],69 ± 4 µM
"CCOC(=O)C(=NO)C(=O)CC [1b, oxime 1b]",Kd,XenA [6],6430 ± 1570 µM
same,X-ray crystal structure,OPR3 [7],(c) OPR3/1b.
